Series [1] deals with 786-O cell lysate. Briefly: Dephosphorylation by 786-O cell lysate. In kind it is in vitro ADME, human. Particulars: 100 μM compound, 786-O lysate 2 mg/mL protein, pH 5.5, 37° C. Here is the method:
786-O cells, as frozen pellets with an estimated quantity of 10^7 cells per vortexing tube, were resuspended and homogenized in 500 μL of lysis buffer (25 mM NaOAc, 1 mM EDTA, 0.25 M sucrose, 0.1% Triton X-100, pH 5.5). Homogenization involved vortex mixing for 30 sec, followed by a one min cooling on ice. For each tube, three vortex and cooling cycles were performed. Cell samples were then further mixed by shearing in a 19 gauge needle three times.
Following homogenization, the DNA of the cell lysate was hydrolyzed using BENZONASE™ DNAse. Samples were first brought up in 1 mM MgSO4. After mixing, 2 μL of BENZONASE™ DNAse (neat) were added to each vial of lysate (4 μL/mL, v/v, final concentration). Samples were then stored at RT for 15 min and then cooled on ice. For this step, successful DNAse activity was evidenced by appearance of flocculent precipitate. Samples were then spun at maximum speed in a microcentrifuge for 5 min to remove cellular debris. Supernatant was frozen at −70° C. for later use. Protein concentration of the lysate was determined using Pierce BCA Protein Determination methodology (Thermo Scientific).
A 2000 μM stock solution of the compound of formula (Ia) was prepared. Lysate was diluted to 2.1 mg/mL in lysate buffer. For reaction, 5 μL of the compound (Ia) stock was added to 95 μL of lysate. […]

The subject of series [2] is H226 cell lysates. The experiment in a line: Dephosphorylation by H226 cell lysates. In kind it is in vitro ADME, human. Particulars: similar experiment.

The values that follow come from patent US9186416B2, “Immunoconjugates, compositions for making them, and methods of making and use” (priority 2011, dated 2015).

`Nc1ccc(C(=O)Nc2ccc3[nH]c(C(=O)N4C[C@@H](CCl)c5c4cc(OP(=O)(O)O)c4ccccc54)cc3c2)cc1` [compound (Ia)]: the “time to complete dephosphorylation” value is at most 8 h in series [1] and at most 3 h in series [2].
